Test results as given in publication PMC9230590, “Pharmacokinetics and Tissue Distribution of Enavogliflozin in Mice and Rats” (Pharmaceutics, 2022).
“And” between values parts separate entries of the source, which are not always exact repeats. Equal entries are not always repeated. Where two headings read alike, the source gives them in different places.

Assays:
Format in all cases: in vivo, ICR mice
[1] = Pharmacokinetics after intravenous injection in mice; details: for AUC(0-inf) / AUC(0-t) / half-life / MRT / clearance / Vd: ICR, mouse; for AUC(0-inf) / AUC(0-t) / half-life / MRT / clearance / Vd / Co: plasma; for AUC∞/D / Co/D: dose normalized
Experimental: Fifty-four ICR mice were randomly divided into nine groups (n = 6 per group; Table 1) and intravenously administered an enavogliflozin solution at doses of 0.3, 1, and 3 mg/kg. The drug was dissolved in a mixture of 10% DMSO and 90% saline and injected via the tail vein. Before blood sampling, mice were anesthetized for 5 min using 2% isoflurane in a vaporizer with an oxygen flow of 0.8 L/min. Blood sampling used a sparse sampling method via the right or left retro-orbital vein using heparinized capillary tubes (Heinz Herenz, Hamburg, Germany). Final blood was collected from the abdominal artery using a heparin-treated 1 mL syringe (Jung Lim Co. Ltd., Choong-Buk, Korea) under isoflurane anesthesia (Table 1). Blood samples were collected at 0, 0.083, 0.25, 0.5, 1, 2, 4, 8, and 24 h and centrifuged at 12,000× g for 1 min to separate plasma. An aliquot (30 µL) of each plasma sample was stored at −80 °C until enavogliflozin analysis.
(§1) Concentrations of enavogliflozin in plasma and tissue homogenate samples were analyzed using an Agilent 6430 triple quadrupole liquid chromatography-mass spectrometry (LC–MS/MS) system (Agilent, Wilmington, DE, USA) following a previously published method.
(§2) The data were expressed as the means ± standard deviation for the groups. Pharmacokinetic parameters, such as the area under the plasma concentration–time curve during the period of observation (AUClast), AUC to infinite time (AUC∞), clearance (CL), and volume of distribution at steady-state (Vd,ss), the terminal half-life (t1/2), and mean residence time (MRT) were calculated using non-compartment analysis with WinNonlin software (version 5.1; Pharsights, Cary, NC, USA). The AUC ratios were calculated by dividing the AUClast of enavogliflozin in the tissue samples by the plasma AUClast values of enavogliflozin [15].

[2] = Recovery from urine and feces over 72 h in mice; details: for Recovery, Feces / Recovery, Urine: parent form
Experimental: Three mice received enavogliflozin (1 mg/kg) intravenously and were returned to metabolic cages with food and water ad libitum and urine and feces samples were collected every 24 h for 72 h. Urine and feces were weighed, and 30 µL aliquots of urine and 50 µL aliquots of 10% feces homogenates were stored at −80 °C until enavogliflozin analysis. Four mice received enavogliflozin (1 mg/kg) by oral gavage and were returned to their metabolic cages to collect urine and feces samples every 24 h for 72 h with the same protocols described above.
as §1
Aliquots of plasma or urine (30 µL each) and tissue homogenate (50 µL each) were added to 100 µL of aqueous solution of d4-enavogliflozin (IS, 20 ng/mL), and vigorously mixed with 500 µL MTBE for 15 min. After centrifugation at 16,000× g for 5 min, samples were kept for 1 h, at a temperature of −80 °C to freeze the aqueous layer freeze. The organic upper layer was then transferred to a clean tube and evaporated to dryness under a gentle stream of nitrogen. The dried extract was reconstituted in 150 µL of mobile phase, and a 3 µL aliquot was injected into the LC–MS/MS system. Enavogliflozin was separated on a Synergi Polar RP column (2.0 × 150 mm, 4 µm particle size; Phenomenex, Torrence, CA, USA) using a isocratic mobile phase consisting of water (15%) and methanol (85%) containing 0.1% formic acid at a flow rate of 0.25 mL/min.

[3] = Tissue distribution after single or repeated oral administration (7 or 14 days) in mice; details: for Kp / AUC(0-t): ICR, mouse, po, 1 mg/kg; for Kp: read-out: AUC Ratio (AUC48 h, tissue / AUC48 h, plasma); for AUC(0-t): plasma, read-out: AUC48 h; for AUC48 h: oral 1 mg/kg
Experimental: Thirty-five ICR mice were randomly divided into five groups (n = 7 per sampling time point) and administered with an enavogliflozin solution (1 mg/kg, once daily) for 14 days via oral gavage. Another thirty-five ICR mice were randomly divided into five groups (n = 7 per sampling time point) and administered with an enavogliflozin solution (1 mg/kg, once daily) for 7 days via oral gavage. The other thirty-five ICR mice were randomly divided into five groups (n = 7 per sampling time point) and administered with an enavogliflozin solution at a dose of 1 mg/kg via oral gavage. Blood samples (approximately 0.2 mL) were collected at 1, 2, 8, 24, and 48 h via the abdominal artery. Subsequently, whole tissues, including kidney, liver, small intestine, and large intestine, were isolated. An aliquot (30 µL) of plasma and aliquots (50 µL) of tissue homogenate samples were prepared and stored with the same procedures described above.
as §1, §2

OC[C@H]1O[C@@H](c2cc(Cc3ccc(C4CC4)cc3)c(Cl)c3c2CCO3)[C@H](O)[C@@H](O)[C@@H]1O [enavogliflozin, (2S,3R,4R,5S,6R)-2-(7-chloro-6-(4-cyclopropylbenzyl) -2,3-dihydrobenzofuran-4-yl)-6-(hydroxymethyl)tetrahydro-2H-pyran-3,4,5-triol]
AUC(0-inf) ([1]; IV 0.3 mg/kg): 512 ± 30.7 ng·h/mL | AUC(0-t) ([1]; IV 0.3 mg/kg): 479 ± 33.6 ng·h/mL | half-life ([1]; IV 0.3 mg/kg): 6 ± 1.3 h | AUC(0-inf) ([1]; IV 1 mg/kg): 1630 ± 336 ng·h/mL | AUC(0-t) ([1]; IV 1 mg/kg): 1510 ± 282 ng·h/mL | half-life ([1]; IV 1 mg/kg): 6.5 ± 1.4 h | AUC(0-inf) ([1]; IV 3 mg/kg): 5080 ± 1060 ng·h/mL | AUC(0-t) ([1]; IV 3 mg/kg): 4660 ± 998 ng·h/mL | half-life ([1]; IV 3 mg/kg): 6.6 ± 0.5 h | MRT ([1]; IV 0.3 mg/kg): 5.2 ± 0.4 h | clearance ([1]; IV 0.3 mg/kg, read-out: CL): 9.8 ± 0.6 mL/min/kg | Vd ([1]; IV 0.3 mg/kg, read-out: Vd,ss): 3.1 ± 0.3 L/kg | MRT ([1]; IV 1 mg/kg): 4.9 ± 0.5 h | clearance ([1]; IV 1 mg/kg, read-out: CL): 10.7 ± 2.5 mL/min/kg | Vd ([1]; IV 1 mg/kg, read-out: Vd,ss): 3.1 ± 0.6 L/kg | MRT ([1]; IV 3 mg/kg): 5.2 ± 0.8 h | clearance ([1]; IV 3 mg/kg, read-out: CL): 10.2 ± 2.1 mL/min/kg | Vd ([1]; IV 3 mg/kg, read-out: Vd,ss): 3.2 ± 0.5 L/kg | clearance ([1]; IV 0.3–3 mg/kg, all doses together, read-out: Systemic clearance): 10.1 ± 1.59 mL/min/kg | Vd ([1]; IV, range over doses 0.3–3 mg/kg, read-out: steady-state volume of distribution (Vd,ss)): 3.1 to 3.2 L/kg | AUC∞/D ([1]; IV 0.3 mg/kg): 1706.8 ± 102.3 | Co/D ([1]; IV 0.3 mg/kg): 416.8 ± 31.3 | Co ([1]; IV 0.3 mg/kg): 125.0 ± 9.4 ng/mL | AUC∞/D ([1]; IV 1 mg/kg): 1626.7 ± 335.6 | Co/D ([1]; IV 1 mg/kg): 408.6 ± 103.2 | Co ([1]; IV 1 mg/kg): 408.6 ± 103.2 ng/mL | AUC∞/D ([1]; IV 3 mg/kg): 1694.3 ± 354.5 | Co/D ([1]; IV 3 mg/kg): 424.7 ± 62.2 | Co ([1]; IV 3 mg/kg): 1274.1 ± 186.6 ng/mL | Recovery in feces relative to urine ([2]; 1 mg/kg IV): about 6 fold | Recovery, Feces ([2]; 1 mg/kg IV, 0–24 h, 1 mg/kg): 36.3 % of Dose and 36.3 ± 3.6 % of Dose | Recovery, Urine ([2]; 1 mg/kg IV, 0–24 h, 1 mg/kg): 6.3 % of Dose and 6.3 ± 0.8 % of Dose | Recovery, Feces ([2]; 1 mg/kg IV, 0–72 h, 1 mg/kg): 39.3 ± 3.5 % of Dose and 39.3 % of Dose | Recovery, Urine ([2]; 1 mg/kg IV, 0–72 h, 1 mg/kg): 6.6 ± 0.7 % of Dose and 6.6 % of Dose | Recovery, Feces ([2]; 1 mg/kg IV, 24–48 h): 2.7 ± 1.3 % of Dose | Recovery, Urine ([2]; 1 mg/kg IV, 24–48 h): 0.1 ± 0.0 % of Dose | Recovery, Feces ([2]; 1 mg/kg IV, 48–72 h): 0.4 ± 0.1 % of Dose | Recovery, Feces ([2]; 1 mg/kg PO, 0–24 h): 50.6 ± 11.1 % of Dose | Recovery, Urine ([2]; 1 mg/kg PO, 0–24 h): 6.6 ± 0.6 % of Dose | Recovery, Urine ([2]; 1 mg/kg PO, 0–72 h): 6.8 ± 0.6 % of Dose | Recovery, Feces ([2]; 1 mg/kg PO, 0–72 h, 1 mg/kg): 51.4 % of Dose and 51.4 ± 11.5 % of Dose | Recovery, Feces ([2]; 1 mg/kg PO, 24–48 h): 0.72 ± 0.4 % of Dose | Recovery, Urine ([2]; 1 mg/kg PO, 24–48 h): 0.1 ± 0.0 % of Dose | Recovery, Feces ([2]; 1 mg/kg PO, 48–72 h): 0.2 ± 0.1 % of Dose | dose excreted ([2]; ICR, mouse, urine and feces, 1 mg/kg IV, 72 h, read-out: total recovery (feces + urine)): ~46% | Kp ([3]; kidney, repeated dose for 7 days, kidney): 37.6 ± 5.9 | Kp ([3]; kidney, repeated dose for 14 days, kidney): 38.4 ± 18 | Kp ([3]; kidney, single dose, kidney): 38.7 ± 6.3 | Kp ([3]; large intestine, repeated dose for 7 days, large intestine): 2.33 ± 0.34 | Kp ([3]; large intestine, repeated dose for 14 days, large intestine): 2.2 ± 0.71 | Kp ([3]; large intestine, single dose, large intestine): 3.24 ± 1.1 | Kp ([3]; liver, repeated dose for 7 days, liver): 3.77 ± 0.73 | Kp ([3]; liver, repeated dose for 14 days, liver): 4.37 ± 2.6 | Kp ([3]; liver, single dose, liver): 4.85 ± 0.64 | AUC(0-t) ([3]; repeated dose for 7 days): 2090 ± 290 ng·h/mL | AUC(0-t) ([3]; repeated dose for 14 days): 2360 ± 690 ng·h/mL | AUC(0-t) ([3]; single dose): 2130 ± 270 ng·h/mL | Kp ([3]; small intestine, repeated dose for 7 days, small intestine): 4.5 ± 0.89 | Kp ([3]; small intestine, repeated dose for 14 days, small intestine): 3.4 ± 1.5 | Kp ([3]; small intestine, single dose, small intestine): 3.47 ± 0.49 | AUC48 h ([3]; repeated dose for 7 days, kidney): 77.2 ± 6.3 µg·h/g | AUC48 h ([3]; repeated dose for 7 days, large intestine): 4.88 ± 1.1 µg·h/g | AUC48 h ([3]; repeated dose for 7 days, liver): 7.89 ± 2.1 µg·h/g | AUC48 h ([3]; repeated dose for 7 days, small intestine): 9.39 ± 2.1 µg·h/g | AUC48 h ([3]; repeated dose for 14 days, kidney): 81.6 ± 4.8 µg·h/g | AUC48 h ([3]; repeated dose for 14 days, large intestine): 4.90 ± 1.5 µg·h/g | AUC48 h ([3]; repeated dose for 14 days, liver): 8.85 ± 1.8 µg·h/g | AUC48 h ([3]; repeated dose for 14 days, small intestine): 7.46 ± 2.3 µg·h/g | AUC48 h ([3]; single dose, kidney): 80.9 ± 5.1 µg·h/g | AUC48 h ([3]; single dose, large intestine): 5.68 ± 1.6 µg·h/g | AUC48 h ([3]; single dose, liver): 10.2 ± 1.0 µg·h/g | AUC48 h ([3]; single dose, small intestine): 7.30 ± 0.77 µg·h/g
